Assays:
[1] = system: FAR-1; experiment: Fluorescence titration, FAR•analyte complex formation in homogeneous solution; type: binding
Experimental: Fluorescence titrations were carried out in aqueous HEPES buffer (10 mM, pH 7, 22 °C) unless stated otherwise. To a solution of the FAR (typically at 10–30 μM) was stepwise added a solution of the analyte (typically up to 2 mM) and the fluorescence spectra were recorded. The normalized emissions at 450 nm (FAR-1) or at 370 nm (FAR-2) were fitted with an equation for a 1 : 1 binding by a least-square fit. The resulting affinity constants are reported in Supplementary Table 1. Representative titration plots are shown in Supplementary Fig. 1. Note that the high CB8-dye binding affinities correspond to a near quantitative degree of host-dye complexation, i.e., quantitative formation of the FAR, such that the subsequent binding of the analyte can be treated independently.

[2] = FARMA: permeation of analytes into FAR-loaded liposomes (fluorescence, cuvette or stopped-flow); conditions: for membrane permeability (in words): FARMA with FAR-loaded liposomes or GUVs
Source text: Elementary physical parameters, such as permeability coefficients, can be extracted from the full kinetic FARMA data. This kinetic profile → parameter mapping requires some assumptions to be made in regard to the permeation mechanism. We applied a reported permeation model for liposomes[31] to arrive at permeation rate constants (kp) and apparent permeability coefficients (Papp). The derivation of the mathematical relation (1), linking the fundamental permeability rate constant and permeability coefficient to experimental measurable kobs rate constants, the known total analyte and total FAR concentration, and the experimentally determined liposome radius (r), is shown in the Supplementary Information.1 Papp=kp⋅r/3=kobs/canalyte⋅cFAR⋅r/3 […]
The volume-to-surface correction factor r/3 accounts for the fact that the observed rates depend on the size, i.e., radius r, of the liposomal assembly. […] The initial-rate method can also be applied, see the Supplementary Information. Moreover, kobs/canalyte can be estimated by single-point measurements at selected canalyte concentration.
A solution of 2.5 mg/mL of POPC and 0.33 mg/mL of POPS in chloroform was purged with nitrogen and dried overnight under […] vacuum. […] The resulting FAR-loaded liposomes were separated from non-encapsulated species by size-exclusion chromatography (NAP-25 column), while maintaining the same buffer. The absence of non-encapsulated FAR was confirmed by adding a non-membrane-permeable species such as tryptophan to a fluorescence cuvette containing 25 µL of liposomes diluted in 1 mL HEPES (10 mM) buffer. Complete removal of non-encapsulated FAR is indicated by the absence of a significant fluorescence change upon Trp addition.
In a typical experiment, 20 µL of liposome solution loaded with FAR was diluted in 1 mL HEPES buffer (10 mM, pH 7.0) in a 1 mL quartz cuvette. An emission spectrum was recorded after 10 min of “equilibration time” on a Varian Eclipse spectrofluorometer thermostated at 22 °C with a water bath using λexc = 400 nm for FAR-1, λexc = 310 nm for FAR-2, and λexc = 330 nm for FAR-3. In the time-resolved experiments, the emission intensity at λobs = 450 nm for FAR-1, λobs = 370 nm for FAR-2, and λobs = 370 and 500 nm for FAR-3 (the latter is the emerging excimer band for certain FAR-3•analyte complexes) was recorded with an averaging time of 0.5 s. […] For single-point experiments, a full spectrum was recorded after a fixed time or several time intervals after analyte addition. […] Only FAR-analyte combinations were used for FARMA, for which no significant autofluorescence and competitive light absorption of the analyte occurred.
For each experiment, measurements from 6 injections were accumulated and the average of these traces was used for data analysis.
Calculation of the unimolecular permeation rate constants ( kp) and of the apparent permeability coefficients (Papp).
The passive diffusion (permeation) of small non-charged compounds follows a modified Fick’s law and can be expressed by a first order kinetics.1 Similar to first order chemical reactions, the kinetics curve can therefore be fitted monoexponentially to obtained the observed permeation rates (kobs). In our assay set-up, such an exponential fit is an approximation, since it neglects that a certain fraction of transported analyte is bound to the FAR and cannot exit the liposome. Nevertheless, the fit of the kinetic curves of the […]
approximation is justified.

[3] = FAR-1, 10 mM HEPES buffer (pH 7), 1:1 binding model, error estimate ≤ 20%
[4] = monoexponential fit, analyte 40 µM (bulk), FAR-2 ca. 500 µM in the liposome interior, 20% error

| SMILES | Ka [1, 3] | membrane permeability (in words) [2] | kobs [2, 4] [s–1] | kobs ([2]; source data of Fig. 5) | log(kobs) ([2]; source data of Fig. 5) | Ka ([1]; pH 7) |
| --- | --- | --- | --- | --- | --- | --- |
| Oc1ccccc1O [1,2-dihydroxybenzene] | 20 10^3 M−1 | “instantaneously” permeating | – | – | – | – |
| O=C1C=CC(=O)C=C1 [1,4-benzoquinone] | 0.5 10^3 M−1 | – | – | – | – | – |
| O=P(O)(O)Oc1ccc2ccccc2c1 [2-naphthyl phosphate] | – | membrane-impermeable | – | – | – | – |
| Cc1ccccc1O [2Me-phenol, 2-methylphenol] | – | – | 0.33 | 0.33 | -0.4815 | – |
| O=C(O)C(=O)Cc1ccc(O)cc1 [4-hydroxyphenylpyruvic acid] | 17 10^3 M−1 | – | – | – | – | – |
| Nc1ccc(Br)cc1 [4Br-aniline, 4-bromoaniline] | – | – | 4.0 | 4 | 0.6021 | – |
| N#Cc1ccc(N)cc1 [4CN-aniline, 4-cyanoaniline] | – | – | 6.5 | 6.5 | 0.8129 | – |
| Nc1ccc(Cl)cc1 [4Cl-aniline, 4-chloroaniline] | – | – | 4.0 | 4 | 0.6021 | – |
| Oc1ccc(Cl)cc1 [4Cl-phenol, 4-chlorophenol] | – | – | 2.2 | 2.2 | 0.3424 | – |
| CCc1ccc(O)cc1 [4Et-phenol, 4-ethylphenol] | 1.2 10^3 M−1 | – | 0.24 | 0.24 | -0.6198 | – |
| Nc1ccc(F)cc1 [4F-aniline] | – | – | 4.4 | 4.4 | 0.6434 | – |
| Oc1ccc(F)cc1 [4F-phenol] | – | – | 2.8 | 2.8 | 0.4472 | – |
| Nc1ccc(I)cc1 [4I-aniline] | – | – | 3.1 | 3.1 | 0.4914 | – |
| Oc1ccc(I)cc1 [4I-phenol, 4-iodophenol] | – | – | 0.69 | 0.69 | -0.1611 | – |
| O=[N+]([O-])c1ccc(O)cc1 [4NO2-phenol] | – | – | 38 | 38 | 1.58 | – |
| N[C@@H](Cc1c[nH]c2ccc(O)cc12)C(=O)O [5HO-Trp, 5-hydroxy tryptophan] | 7.7 10^3 M−1 | – | – | – | – | – |
| CN(C)c1ccc(C#N)cc1 [DMABN, 4-(N,N-dimethylamino) benzonitrile] | – | – | 0.68 | 0.68 | -0.1675 | – |
| O=C1CCC(=O)N1c1ccccc1 [N-phenylsuccinimide] | 30 10^3 M−1 | – | 1.1 | 1.1 | 0.04139 | – |
| CC(=O)NC(Cc1c[nH]c2ccccc12)C(=O)O (stereo not drawn) [NAc-Trp] | 50 10^3 M−1 | – | – | – | – | – |
| c1ccccc1 [benzene] | 4 10^3 M−1 | – | – | – | – | – |
| CC(C)(O/N=C(\C(=O)N[C@@H]1C(=O)N2C(C(=O)[O-])=C(C[n+]3ccccc3)CS[C@H]12)c1csc(N)n1)C(=O)O [ceftazidime, reference compound] | < 1 10^3 M−1 | – | – | – | – | – |
| O=C(N[C@H](CO)[C@H](O)c1ccc([N+](=O)[O-])cc1)C(Cl)Cl [chloramphenicol, reference compound] | < 1 10^3 M−1 | – | – | – | – | – |
| O=C(O)Cc1cc(O)ccc1O [homogentisic acid] | – | – | – | – | – | 0.14 |
| c1ccc2[nH]ncc2c1 [indazole] | – | – | 2.4 | 2.4 | 0.3802 | – |
| COc1ccc2cc([C@H](C)C(=O)O)ccc2c1 [naproxen, reference compound] | 2 10^3 M−1 | – | – | – | – | – |
| CC(=O)Nc1ccc(O)cc1 [paracetamol, reference compound] | 7 10^3 M−1 | – | – | – | – | – |
| Nc1c(F)c(F)c(F)c(F)c1F [pentafluoroaniline] | – | – | 0.51 | 0.51 | -0.2924 | – |
| CCCN(CCOc1c(Cl)cc(Cl)cc1Cl)C(=O)n1ccnc1 [prochloraz] | 2.8 10^3 M−1 | – | – | – | – | – |
| c1ccc2ncccc2c1 [quinoline] | 2.2 10^3 M−1 | – | – | – | – | – |
| C=C(C)[C@H]1Cc2c(ccc3c2O[C@@H]2COc4cc(OC)c(OC)cc4[C@@H]2C3=O)O1 [rotenone] | 4.8 10^3 M−1 | – | – | – | – | – |

Reference: article PMC7363885, “Fluorescent artificial receptor-based membrane assay (FARMA) for spatiotemporally resolved monitoring of biomembrane permeability” (Communications Biology, 2020)
